A short description of data set [1]: plasma protein binding in bovine plasma (ultrafiltration). The conditions noted are these: bovine plasma from two cows, 2000 x g.
The conditions of data set [2]: cited from earlier work. An excerpt:
TABLE 2 Comparison of in vitro and in vivo clearance values.

For data set [3] the following is noted: cited from earlier work. This is another data set of the same source.
Data set [4] can be described thus: bovine blood in vitro hemodialysis model: hemofilter clearance. The conditions noted are these: for Cl, in vitro clearance rate: ultrafiltration 0 ml/min, 37°C, corrected by hematocrit. The format is in vitro ADME. How it is done: Hemodialysis was simulated using a Fresenius 4008H dialysis machine. After priming of the extracorporeal circuit including the dialysis membrane with 0.9% saline solution, a reservoir bag containing 2 L of 37°C warm heparinized bovine blood (provided in cooperation with the University of Veterinary Medicine Vienna after seeking authorization by the institutional and governmental ethics committee, (ZI.04/04/972,013, GZ: 68.205/0240-WF/V/3b/2016) was connected to the circuit. The blood was kept at 37°C throughout the experiment. It was mixed with 2,000 IU of low molecular weight heparin directly during the blood draw as well as during the experiment itself with a rate of 500 IU per hour. After circuit connection, the investigated drug was added to the reservoir in order to mimic plasma levels previously described in trials ([Lanese et al., 1989]; [Thalhammer et al., 1997]; [Amin et al., 1999]). […] After priming the system with blood, it was allowed to run for 30 s to allow equilibration of blood hematocrit throughout the extracorporeal circuit before the baseline sample was drawn. Due to the reduced volume compared to in vivo and the comparably large hemofilter membrane area, a considerably faster drug concentration decline was expected. Thus, pre filter, post filter and ultrafiltrate samples were collected at the end of minutes 1, 5, 10, 15, 20, 30, 40 and 60 of the run. All samples were plasma separated by centrifugation at 2000 ×vg for 7 min and the supernatant stored at −80°C for analysis.
An actual blood flow rate of 300 ml/min and a dialysate flow rate of 500 ml/min were kept as standard flow rates. Depending on previous literature, single drugs were run at different flow rates to allow external validation of the model. Ultrafiltration (corresponding to negative fluid balance/water removal during hemodialysis) was kept at 0 ml/min. […] Hemodialysation and hemofiltration experiments were performed with Baxter Gambro CAHP 170 diacetate devices, Nipro Sureflux 17UX and 21UX triacetate membranes as well as Fresenius Hemoflow F80s and FX 80 polysulphone membranes.
The measured drug plasma concentrations were analyzed to calculate the area under the curve, hemofilter clearance and the drug saturation coefficient. As removal within the hemofilter is expected to be too fast for equilibration of drugs out of the erythrocyte compartment and drug concentrations were measured in the plasma, all clearance values were calculated with a hematocrit corrected formula, in which Hc is the blood hematocrit in percent divided by 100, BFR the actual blood flow rate, Cpre the drug concentration measured before the blood enters the filter and Cpost the drug concentration measured after the filter. Additionally the formula allows for correction of blood concentration by ultrafiltration (UFR). (1−Hc)×BFR×Cpre−(Cpost(BFR−UFR))/BFR/[…]
Hematocrit corrected and not corrected clearance, total “body” clearance, volume of distribution, area under curve, elimination coefficient and half-life were evaluated for their correspondence to previously published in vivo values. Whenever previous publications declared the method of clearance calculation, the same formula was used. […] An empirical fitting of the in vitro PK curves and available in vivo PK curves was performed to gain an insight into the time relation between in vitro and in vivo.
More recent historic data on intradialytic gentamicin clearance only exists for the Baxter CAHP-210 membrane ([Sowinski et al., 2008]) and the Fresenius F80s ([Amin et al., 1999]) which are both not available anymore. Baxter however was kind enough to supply us with several CAHP-170 and […] models. To extrapolate assumed clearance of a CAHP-210, we compared clearance gains between a Nipro Sureflux 17UX and a Sureflux 21UX membrane.

For data set [5] the following is noted: earlier publications, slightly higher bound fraction, (±3.0); ref PMC, 1972; cited from earlier work.
Setting [6] is: membrane Fx80 (Fresenius high flux polysulphone, 1.8 m^2), BFR 300 ml/min, DFR 500 ml/min, bovine blood, mean, N = 12.

Where two headings read alike, the source gives them in different places.

Regarding `C[C@@H](O)[C@H]1C(=O)N2C(C(=O)O)=C(S[C@@H]3CN[C@H](CNS(N)(=O)=O)C3)[C@H](C)[C@H]12` [Doripenem, doripenem], the “plasma protein binding, Bovine” value in data set [1] (Centrisart I devices, 20 min, room temperature, HPLC) is 9.7%. Moreover, the “Clin vivo, clearance as described in referenced publication” value in data set [2] (human, in vivo) was 148.61 mL/min. In addition, the “plasma protein binding, Human” value in data set [3] is recorded as 8.0%. Besides, the “Cl, in vitro clearance rate” value in data set [4] (setting [6]) amounted to 141.25 mL/min; in data set [4] (membrane SF21UX (Nipro cellulose triacetate, 2.1 m^2), BFR 300 ml/min, DFR 500 ml/min, bovine blood, mean, N = 12) it was 155.76 mL/min.
As for `CNC(C)C1CCC(N)C(OC2C(N)CC(N)C(OC3OCC(C)(O)C(NC)C3O)C2O)O1` (centres unmarked) [Gentamicin, gentamicin], the “Cl, in vitro clearance rate” value turned out to be 90.12 mL/min in data set [4] (membrane CAHP-170 (Baxter cellulose diacetate, 1.7 m^2), BFR 400 ml/min, DFR 800 ml/min, bovine blood, mean, N = 16); 122.37 mL/min in data set [4] (membrane F80s (Fresenius high flux polysulphone, 1.8 m^2), BFR 300 ml/min, DFR 500 ml/min, bovine blood, mean, N = 12); 137.62 mL/min in data set [4] (membrane F80s (Fresenius high flux polysulphone, 1.8 m^2), BFR 400 ml/min, DFR 800 ml/min, bovine blood, mean, N = 12); 142.13 mL/min in data set [4] (setting [6]); 187.90 mL/min in data set [4] (membrane Fx80 (Fresenius high flux polysulphone, 1.8 m^2), BFR 400 ml/min, DFR 800 ml/min, bovine blood, mean, N = 12); 160.75 mL/min in data set [4] (membrane SF17UX (Nipro cellulose triacetate, 1.7 m^2), BFR 400 ml/min, DFR 800 ml/min, bovine blood, mean, N = 12). For the same compound, the “Cl, in vitro clearance rate” value is 131.52 mL/min in data set [4] (membrane SF21E (Nipro Sureflux-21E medium-flux cellulose triacetate, 2.1 m^2), BFR 400 ml/min, DFR 800 ml/min, 2 L heparinized bovine blood, mean, N = 12) and 178.25 mL/min in data set [4] (membrane SF21UX (Nipro cellulose triacetate, 2.1 m^2), BFR 400 ml/min, DFR 800 ml/min, bovine blood, mean, N = 17).
`CN[C@H](CC(C)C)C(=O)N[C@H]1C(=O)N[C@@H](CC(N)=O)C(=O)N[C@H]2C(=O)N[C@H]3C(=O)N[C@H](C(=O)N[C@H](C(=O)O)c4cc(O)cc(O)c4-c4cc3ccc4O)[C@H](O)c3ccc(c(Cl)c3)Oc3cc2cc(c3O[C@@H]2O[C@H](CO)[C@@H](O)[C@H](O)[C@H]2O[C@H]2C[C@](C)(N)[C@H](O)[C@H](C)O2)Oc2ccc(cc2Cl)[C@H]1O` [Vancomycin, vancomycin]: the “plasma protein binding, Bovine” value in data set [1] (Millipore Centrefree device, 1 ml aliquot, 10 min, Cobas VANC3 assay) was determined as 43.6%. Also, in data set [5], the bound fraction was 54.8%. Moreover, the “Clin vivo, clearance as described in referenced publication” value was 73.0 mL/min in data set [2] (hemodialysis patients, membrane F60s, ref Lanese et al. (1989)) and 85.2 mL/min in data set [2] (hemodialysis patients, membrane F80s, ref Lanese et al. (1989)). The “plasma protein binding, Human” value in data set [3] (previously published value, ref Butterfield et al. (2011)) is listed as 41.5%.
Consider teicoplanin, for which the “Clin vivo, non-hematocrit corrected clearance” value in data set [2] (human, in vivo) is 39.70 mL/min. Further, the “Cl, in vitro clearance rate” value was 25.50 mL/min in data set [4] (membrane F60s (Fresenius polysulphone), BFR 250 ml/min, DFR 500 ml/min, bovine blood, mean, N = 16) and 43.49 mL/min in data set [4] (membrane Fx80 (Fresenius polysulphone), BFR 250 ml/min, DFR 500 ml/min, bovine blood, mean, N = 12). In addition, the “Clin vitro, non hematocrit corrected clearance” value in data set [4] (membrane F60s, bovine blood in vitro hemodialysis, non hematocrit corrected, mean) is 38.95 mL/min. For the same compound, in data set [4] (membrane Sureflux SF 21E triacetate, bovine blood in vitro hemodialysis, flow rates not given), the “clearance, simulation with Sureflux SF 21E triacetate dialyzer” value is 17.6 mL/min.

These data come from PMC8264131 (Frontiers in Pharmacology, 2021).
